{
  "source": "patent US20180000768A1",
  "about": "“INTESTINAL FXR AGONISM ENHANCES GLP-1 SIGNALING TO RESTORE PANCREATIC BETA CELL FUNCTIONS” (Salk Institute for Biological Studies, priority 2015, published 2018)",
  "key": {"[1]": {"tested_on": "isolated islets", "assay": "gene expression after direct ex vivo treatment of isolated islets", "assay_type": "cell-based, mouse", "details": "24 hours ex vivo, XL335 1 μM, Fex 1 μM", "protocol": "Leptin-deficient ob/ob mice were treated daily with vehicle, Fex, or the analogue Fex-D (50 mg/kg) via P.O. for 14 days (A) Chemical structures of fexaramine and Fex-D (B) Schematic of the experimental design (C) Serum glucose levels (D) Glucose tolerance test (E) Insulin secretion in vivo (F) GLP-1 secretion in vivo (G) Heatmap showing hierarchal clustering of gene expression changes in islet induced by Fex (100 mg/kg, 4 wks) and FexD (50 mg/kg, 2 weeks) treatment in ob/ob mice (in vivo); by treatment of islets with XL335 (1 μM), Fex (1 μM), mFgf15 and hFgf19 (24 hours ex vivo); and mFgf15 (0.15 mg/kg, 2 weeks) and INT777 (Tgr5, 60 mg/kg, 4 weeks) treatment of ob/ob mice (in vivo). Gene expression was measured by RNA-Seq and changes are expressed as Z-score. (H) Ven diagram of changes in gene expression in pancreatic islets induced by FEX (100 mg/kg for 5 weeks) and FEX-D (50 mg/kg for 14 days). […] Data represent the mean±STD. Statistical analysis was performed with the Student's t test. *p<0.05, **p<0.01.\nNext, primary islets were isolated from mice treated by Fex-D to compare gene expression changes."}, "[2]": {"tested_on": "human enteroendocrinal L cells (NCI-H716)", "assay": "In vitro GLP-1 secretion assay", "assay_type": "cell-based", "details": "L cells pretreated with compound", "protocol": "In vitro GLP-1 secretion assay was performed in human enteroendocrinal L cells (NCI-H716). For each secretion assay, cells were seeded at 1×10^5 cells/ml (1 ml/well) in a matrigel-coated 24-well plate. Prior to GLP-1 secretion assay, cells were pre-treated with DMSO, 1 μM Fex, or 1 μM Fex-D overnight. Cells were deprived in Krebs buffer (with 0.1% BSA) with dipeptidyl peptidase (DPP)-4 inhibitor ([…] sitagliptin). GLP-1 was measured with a commercial kit (EZGLP1T-36K, Millipore). For in vivo GLP-1 secretion, each animal was gavaged with 25 mg per kg of body weight sitagliptin 60-minutes before glucose load. Blood was collected from the tail vein at the indicated intervals, and transferred to serum collection tubes containing sitagliptin."}, "[3]": {"tested_on": "Leptin-deficient ob/ob mice", "assay": "metabolic phenotype and glucose homeostasis of treated ob/ob mice", "assay_type": "in vivo, mouse", "details": "Fex 100 mg/kg/day, reduced treatment duration (2 weeks)"}, "[4]": {"tested_on": "Leptin-deficient ob/ob mice", "assay": "metabolic phenotype and glucose homeostasis of treated ob/ob mice", "assay_type": "in vivo, mouse", "protocol": "Leptin-deficient ob/ob mice were purchased from Jackson laboratory (stock no. 000632). Each mouse consumed 100 mg per kg of body weight Fex (in corn oil) per day by oral gavage for 5 weeks. For in vivo analog study, each mouse consumed 50 mg per kg of body weight Fex-D (in corn oil) per day by oral gavage for 14 days. For GLP-1 receptor antagonist study, each mouse was daily treated with 100 μg per kg of body weight Exendin 9-39 amide (Abcam) via intraperitoneal injection for 2 weeks. For INT-777 study, each mouse was daily gavaged with 60 mg per kg of body weight INT-777 (in corn oil) for 5 weeks. For FGF15 study, each mouse was daily treated with 0.25 mg per kg of body weight FGF15 (in PBS with 0.1% BSA) via intravenous injection for 2 weeks. The sample sizes for all animal studies are indicated in each figure legend. All mice were housed in a specific pathogen-free facility with a 12-h light, 12-h dark cycle and given free access to food and water. All in vivo data were retrieved from 3 independent experimental animal cohorts. Core body temperature was measured with a clinical rectal thermometer (Thermalert model TH-5; Physitemp). For GTTs, 6-h fasted mice received 2 g of glucose per kg of body weight by oral gavage. Human insulin (Humilin, Eli Lilly) was used for insulin sensitivity test. Tail blood was drawn at indicated time intervals, and blood glucose level was measured with a One Touch Ultra glucometer (LifeScan). Body composition was measured with Echo MRI-100 body composition analyzer (Echo Medical Systems). All mice were randomly assigned to experimental groups for further analysis. No samples were excluded from the analysis.\nReal-time metabolic analyses were conducted in a Comprehensive Lab Animal Monitoring System (Columbus Instruments). CO2 production, O2 consumption, RQ (relative rates of carbohydrate versus fat oxidation) and ambulatory counts were determined for 4 consecutive days and nights, with at least 24-h for adaptation before data recording.\nTo investigate the effect of Fex treatment in a diabetic mouse model, leptin-deficient obese mice (ob/ob) were subjected to daily treatment by oral gavage (100 mg/kg) for 5 weeks. […] Gene expression analysis confirmed the induction of UCP1 as well as a number of genes involved in β-oxidation, thermogenesis and oxidative phosphorylation (FIG. 1B-1D)."}, "[5]": {"tested_on": "Human intestinal L cells", "assay": "maintenance of ATP levels under bethanechol chloride", "assay_type": "cell-based", "details": "L cells incubated with bethanechol chloride; DMSO-treated L cells 67%", "protocol": "To further examine how this increase in respiratory capacity affects L cell bioenergetics, the maintenance of ATP levels under energetic demanding conditions was evaluated. Human intestinal L cells treated with DMSO or Fex were incubated with the muscarinic receptor agonist bethanechol chloride and residual ATP levels determined. […] Fex-treated L cells were able to maintain 83% of the initial ATP abundance whereas DMSO-treated L cells were able to maintain 67% (FIG. 7D). Thus, Fex enhances overall mitochondrial bioenergetics in enteroendocrinal L cells."}, "[6]": {"details": "Fex 100 mg/kg daily oral gavage, 5 weeks"}, "[7]": {"details": "Fex 100 mg/kg daily oral gavage, 5 weeks, after 4 hour fast"}},
  "data": [
    {"smiles": "COC(=O)/C=C/c1cccc(N(Cc2ccc(-c3ccc(N(C)C)cc3)cc2)C(=O)C2CCCCC2)c1", "note": "[Fexaramine]", "values": [
      {"measurement": "transcriptional changes seen in islets in vivo with Fex and Fex-D", "setting": "[1]", "result": "not observed"},
      {"measurement": "GLP-1 secretion in response to a glucose challenge", "setting": "[2]", "result": "significant increase"},
      {"measurement": "fasting glucose levels", "setting": "[3]", "result": "little effect"},
      {"measurement": "core temperature", "setting": "[4]; [6]", "result": "increase"},
      {"measurement": "glucose tolerance", "setting": "[4]; [6]", "result": "improved"},
      {"measurement": "gonadal fat (gWAT) tissue weight", "setting": "[4]; [6]", "result": "modestly but significantly reduced"},
      {"measurement": "hepatic gluconeogenesis/lipogenesis", "setting": "[4]; [6]", "result": "remarkably suppressed"},
      {"measurement": "insulin sensitivity", "setting": "[4]; [6]", "result": "improved"},
      {"measurement": "proportion of M2 macrophages in gWAT", "setting": "[4]; [6]", "result": "increasing"},
      {"measurement": "glucose levels", "setting": "[4]; [7]", "result": "reduced"},
      {"measurement": "insulin levels", "setting": "[4]; [7]", "result": "reduced"},
      {"measurement": "respiratory exchange ratio in the dark period", "setting": "[4]; Fex 100 mg/kg daily oral gavage, 5 weeks, metabolic cages", "result": "increased"},
      {"measurement": "time serum glucose levels remained low after cessation of treatment", "setting": "[4]; monitored for 4 weeks after Fex treatment was stopped", "result": 3, "unit": "weeks"},
      {"measurement": "residual ATP, % of the initial ATP abundance maintained", "setting": "[5]", "result": 83, "unit": "%"}
    ]}
  ]
}
